Experiment [1] addresses T1, Nuclear factor erythroid 2-related factor 2 (Homo sapiens) (UniProt Q16236).
T1 sequence (whole entry): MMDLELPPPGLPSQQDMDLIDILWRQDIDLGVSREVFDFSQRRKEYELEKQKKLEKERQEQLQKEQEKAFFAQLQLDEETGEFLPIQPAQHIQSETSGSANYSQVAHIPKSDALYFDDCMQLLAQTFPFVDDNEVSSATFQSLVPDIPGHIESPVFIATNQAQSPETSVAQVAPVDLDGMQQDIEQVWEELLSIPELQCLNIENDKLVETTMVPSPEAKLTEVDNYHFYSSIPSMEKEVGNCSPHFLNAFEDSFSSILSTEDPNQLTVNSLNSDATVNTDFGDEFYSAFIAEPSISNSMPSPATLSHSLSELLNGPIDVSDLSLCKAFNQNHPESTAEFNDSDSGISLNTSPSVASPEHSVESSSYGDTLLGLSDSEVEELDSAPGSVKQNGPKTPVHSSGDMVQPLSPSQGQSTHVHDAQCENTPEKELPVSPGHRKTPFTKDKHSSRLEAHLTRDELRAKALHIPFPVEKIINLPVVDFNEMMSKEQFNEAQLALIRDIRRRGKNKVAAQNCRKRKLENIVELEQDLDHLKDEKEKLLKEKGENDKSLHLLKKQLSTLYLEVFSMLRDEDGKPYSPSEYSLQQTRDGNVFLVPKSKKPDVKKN
Briefly: Activation of Nrf2 in normal human lung fibroblasts assessed as induction of HMOX protein expression by measuring HMOX positive cells level at 0.3 uM incubated for 16 to 18 hrs by immunostaining relative to control DMSO.

Experiment [2] has as its target T1, Nuclear factor erythroid 2-related factor 2 (Homo sapiens). The experiment is described as follows: Activation of Nrf2 in normal human lung fibroblasts assessed as induction of HMOX protein expression at 3 uM incubated for 16 to 18 hrs by immunostaining relative to control.
Experiment [3] has the same target. Briefly: Activation of Nrf2 in normal human lung fibroblasts assessed as induction of HMOX protein expression by measuring HMOX positive cells level at 0.03 uM incubated for 16 to 18 hrs by immunostaining relative to control DMSO.
Experiment [4] shares this target. The experiment is described as follows: Activation of Nrf2 in normal human lung fibroblasts assessed as induction of HMOX protein expression by measuring HMOX positive cells level at 30 uM incubated for 16 to 18 hrs by immunostaining relative to control DMSO.
Experiment [5] has the same target. Briefly: Activation of Nrf2 in normal human lung fibroblasts assessed as induction of HMOX protein expression by measuring HMOX positive cells level at 10 uM incubated for 16 to 18 hrs by immunostaining relative to control DMSO.
For experiment [6] the target is unchanged. The experiment is described as follows: Activation of Nrf2 in normal human lung fibroblasts assessed as induction of HMOX protein expression at 0.3 uM incubated for 16 to 18 hrs by immunostaining relative to control.
Experiment [7] has the same target. The experiment is described as follows: Activation of Nrf2 in normal human lung fibroblasts assessed as induction of HMOX protein expression by measuring HMOX positive cells level at 1 uM incubated for 16 to 18 hrs by immunostaining relative to control DMSO.
The target is the same in experiment [8]. The experiment is described as follows: Activation of Nrf2 in normal human lung fibroblasts assessed as induction of HMOX protein expression at 0.03 uM incubated for 16 to 18 hrs by immunostaining relative to control.
Experiment [9] shares this target. The experiment is described as follows: Activation of Nrf2 in normal human lung fibroblasts assessed as induction of HMOX protein expression by measuring HMOX positive cells level at 0.1 uM incubated for 16 to 18 hrs by immunostaining relative to control DMSO.
Experiment [10] has the same target. The experiment is described as follows: Activation of Nrf2 in normal human lung fibroblasts assessed as induction of HMOX protein expression at 1 uM incubated for 16 to 18 hrs by immunostaining relative to control.
Experiment [11] has the same target. The experiment is described as follows: Activation of Nrf2 in normal human lung fibroblasts assessed as induction of HMOX protein expression at 10 uM incubated for 16 to 18 hrs by immunostaining relative to control.
For experiment [12] the target is unchanged. The experiment is described as follows: Activation of Nrf2 in normal human lung fibroblasts assessed as induction of HMOX protein expression by measuring HMOX positive cells level at 3 uM incubated for 16 to 18 hrs by immunostaining relative to control DMSO.
The target is the same in experiment [13]. Briefly: Activation of Nrf2 in normal human lung fibroblasts assessed as induction of HMOX protein expression at 0.1 uM incubated for 16 to 18 hrs by immunostaining relative to control.
Experiment [14] has the same target. The experiment is described as follows: Activation of Nrf2 in normal human lung fibroblasts assessed as induction of HMOX protein expression at 30 uM incubated for 16 to 18 hrs by immunostaining relative to control.
For experiment [15] the target is unchanged. Briefly: Activation of Nrf2 in normal human lung fibroblasts assessed as induction of HMOX protein expression at 0.312 uM incubated for 16 to 18 hrs by immunostaining relative to control.
For experiment [16] the target is unchanged. Briefly: Activation of Nrf2 in normal human lung fibroblasts assessed as induction of HMOX protein expression at 0.0097 uM incubated for 16 to 18 hrs by immunostaining relative to control.
The target is the same in experiment [17]. The experiment is described as follows: Activation of Nrf2 in normal human lung fibroblasts assessed as induction of HMOX protein expression at 0.156 uM incubated for 16 to 18 hrs by immunostaining relative to control.
The target is the same in experiment [18]. Briefly: Activation of Nrf2 in normal human lung fibroblasts assessed as induction of HMOX protein expression at 0.0048 uM incubated for 16 to 18 hrs by immunostaining relative to control.
Experiment [19] has the same target. The experiment is described as follows: Activation of Nrf2 in normal human lung fibroblasts assessed as induction of HMOX protein expression at 0.019 uM incubated for 16 to 18 hrs by immunostaining relative to control.
Experiment [20] shares this target. Briefly: Activation of Nrf2 in normal human lung fibroblasts assessed as induction of HMOX protein expression at 0.0024 uM incubated for 16 to 18 hrs by immunostaining relative to control.
The target is the same in experiment [21]. Briefly: Activation of Nrf2 in normal human lung fibroblasts assessed as induction of HMOX protein expression at 0.078 uM incubated for 16 to 18 hrs by immunostaining relative to control.
The target is the same in experiment [22]. The experiment is described as follows: Activation of Nrf2 in normal human lung fibroblasts assessed as induction of HMOX protein expression at 0.039 uM incubated for 16 to 18 hrs by immunostaining relative to control.

Each structure is given as a SMILES string.

As for `COC(=O)/C=C/C(=O)OC`, the Activity in experiment [1] came to 2.47%; in experiment [3], 1.71%; in experiment [4], 84.6%; in [5], 74.3%; in experiment [7], 4.38%; in experiment [9] it was 1.21%. Moreover, the Activity in [12] is 41.6%. For the same molecule, the fold change (FC) in experiment [2] turned out to be 2.76; in experiment [6] it was 1.14; in experiment [8] it was 1.04; in [10] it was 1.39; in experiment [11], 4.45; in experiment [13], 1.06. For the same molecule, the fold change (FC) in experiment [14] was determined as 6.19.
As for `COC(=O)[C@]12CCC(C)(C)C[C@H]1[C@H]1C(=O)C=C3[C@@]4(C)C=C(C#N)C(=O)C(C)(C)[C@@H]4CC[C@@]3(C)[C@]1(C)CC2`, the fold change (FC) in [15] is 16.4; in [16], 2.53; in experiment [17], 19; in [18] it was 1.59; in experiment [19], 5; in experiment [20], 1.31. Further, the fold change (FC) in experiment [21] is 12.2; in [22], 8.48.
